Reference: publication PMC5218480 (PLoS ONE, 2017)

Tested on: MV-4-11 cells
Experiment: Gene expression microarray analysis (Affymetrix PrimeView) and GSEA
Format: cell-based, human
Set-up: RFU PODN (11730768_x_at) / Fold change /veh PODN (11730768_x_at) / RFU LINC00158 (11744669_a_at) / Fold change /veh LINC00158 (11744669_a_at) / RFU DUSP10 (11751237_a_at) / Fold change /veh DUSP10 (11751237_a_at) / RFU ID3 (11757404_x_at) / Fold change /veh ID3 (11757404_x_at) / RFU PLEKHG5 (11737974_s_at) / Fold change /veh PLEKHG5 (11737974_s_at) / RFU LRRC4B (11730491_at) / Fold change /veh LRRC4B (11730491_at) / RFU GIMAP4 (11747438_a_at) / Fold change /veh GIMAP4 (11747438_a_at) / RFU KRT8 (11758183_x_at) / Fold change /veh KRT8 (11758183_x_at) / RFU CNN1 (11734310_a_at) / Fold change /veh CNN1 (11734310_a_at) / RFU VPS37D (11726825_at) / Fold change /veh VPS37D (11726825_at) / RFU C10orf10 (11716522_x_at) / Fold change /veh C10orf10 (11716522_x_at) / RFU KIR2DL2 /// KIR2DL4 /// KIR2DL5A /// KIR2DL5B /// KIR2DS1 /// KIR2DS2 /// KIR2DS3 /// KIR2DS4 /// KIR3DL3 /// KIR3DL3 /// KIR3DS1 (11738374_at) / Fold change /veh KIR2DL2 /// KIR2DL4 /// KIR2DL5A /// KIR2DL5B /// KIR2DS1 /// KIR2DS2 /// KIR2DS3 /// KIR2DS4 /// KIR3DL3 /// KIR3DL3 /// KIR3DS1 (11738374_at) / RFU C1QL1 (11718748_at) / Fold change /veh C1QL1 (11718748_at) / RFU TMPRSS4 (11747572_a_at) / Fold change /veh TMPRSS4 (11747572_a_at) / RFU HAMP (11756126_x_at) / Fold change /veh HAMP (11756126_x_at) / RFU RNFT2 (11725882_a_at) / Fold change /veh RNFT2 (11725882_a_at) / RFU NR4A2 (11747474_a_at) / Fold change /veh NR4A2 (11747474_a_at) / RFU ABCC12 (11746883_a_at) / Fold change /veh ABCC12 (11746883_a_at) / RFU TMEM136 (11760407_x_at) / Fold change /veh TMEM136 (11760407_x_at) / RFU CLDN22 /// WWC2 (11732394_at) / Fold change /veh CLDN22 /// WWC2 (11732394_at) / RFU HLA-DPB1 (11760878_x_at) / Fold change /veh HLA-DPB1 (11760878_x_at) / RFU SPINT1 (11716480_a_at) / Fold change /veh SPINT1 (11716480_a_at) / RFU GAP43 (11754022_s_at) / Fold change /veh GAP43 (11754022_s_at) / RFU A4GNT (11735810_at) / Fold change /veh A4GNT (11735810_at) / RFU PRB3 (11715151_x_at) / Fold change /veh PRB3 (11715151_x_at) / RFU TUBB4B (11761932_at) / Fold change /veh TUBB4B (11761932_at) / RFU CAPN14 (11732068_a_at) / Fold change /veh CAPN14 (11732068_a_at) / RFU TMCC2 (11721928_a_at) / Fold change /veh TMCC2 (11721928_a_at) / RFU IRGQ (11745062_a_at) / Fold change /veh IRGQ (11745062_a_at) / RFU FAM174B (11720279_a_at) / Fold change /veh FAM174B (11720279_a_at) / RFU TMPRSS4 (11748680_a_at) / Fold change /veh TMPRSS4 (11748680_a_at) / RFU FAM212B (11763350_a_at) / Fold change /veh FAM212B (11763350_a_at) / RFU PLEKHG5 (11743358_a_at) / Fold change /veh PLEKHG5 (11743358_a_at) / RFU ZSCAN30 (11745921_a_at) / Fold change /veh ZSCAN30 (11745921_a_at) / RFU CMKLR1 (11741424_a_at) / Fold change /veh CMKLR1 (11741424_a_at) / RFU LOC101060620 /// MAPK8IP1 (11723275_at) / Fold change /veh LOC101060620 /// MAPK8IP1 (11723275_at) / RFU SPTSSB (11747773_x_at) / Fold change /veh SPTSSB (11747773_x_at) / RFU PRSS12 (11739890_at) / Fold change /veh PRSS12 (11739890_at) / RFU BIN1 (11741810_x_at) / Fold change /veh BIN1 (11741810_x_at) / RFU WNT11 (11732464_a_at) / Fold change /veh WNT11 (11732464_a_at) / RFU C10orf10 (11716521_a_at) / Fold change /veh C10orf10 (11716521_a_at) / RFU C5orf56 (11738089_at) / Fold change /veh C5orf56 (11738089_at) / RFU CYB561 (11721691_x_at) / Fold change /veh CYB561 (11721691_x_at) / RFU ANKRD19P (11752326_a_at) / Fold change /veh ANKRD19P (11752326_a_at) / RFU OR2T12 /// OR2T33 /// OR2T8 (11738714_s_at) / Fold change /veh OR2T12 /// OR2T33 /// OR2T8 (11738714_s_at) / RFU VCAN (11748164_a_at) / Fold change /veh VCAN (11748164_a_at) / RFU JSRP1 (11732532_at) / Fold change /veh JSRP1 (11732532_at) / RFU KRTAP10-11 (11738290_x_at) / Fold change /veh KRTAP10-11 (11738290_x_at) / RFU MYO3A (11730013_a_at) / Fold change /veh MYO3A (11730013_a_at) / RFU EBF3 (11725865_a_at) / Fold change /veh EBF3 (11725865_a_at) / RFU CAMK2N1 (11719241_x_at) / Fold change /veh CAMK2N1 (11719241_x_at) / RFU C5orf56 (11738088_a_at) / Fold change /veh C5orf56 (11738088_a_at) / RFU OLFML3 (11715873_a_at) / Fold change /veh OLFML3 (11715873_a_at) / RFU LOC100653217 /// NTM (11731650_a_at) / Fold change /veh LOC100653217 /// NTM (11731650_a_at) / RFU MAPK11 (11762145_a_at) / Fold change /veh MAPK11 (11762145_a_at) / RFU FIZ1 (11724087_x_at) / Fold change /veh FIZ1 (11724087_x_at) / RFU OASL (11726364_x_at) / Fold change /veh OASL (11726364_x_at) / RFU SOX15 (11748057_x_at) / Fold change /veh SOX15 (11748057_x_at) / RFU CD79A (11719716_a_at) / Fold change /veh CD79A (11719716_a_at) / RFU HIST1H1D (11736915_at) / Fold change /veh HIST1H1D (11736915_at) / RFU CASKIN2 (11723855_a_at) / Fold change /veh CASKIN2 (11723855_a_at) / RFU LOC730098 (11760151_x_at) / Fold change /veh LOC730098 (11760151_x_at) / RFU OR4N2 (11742367_at) / Fold change /veh OR4N2 (11742367_at) / RFU PRRT2 (11749266_a_at) / Fold change /veh PRRT2 (11749266_a_at) / RFU SNX32 (11753110_a_at) / Fold change /veh SNX32 (11753110_a_at) / RFU CDHR5 (11726645_a_at) / Fold change /veh CDHR5 (11726645_a_at) / RFU RCAN1 (11760418_a_at) / Fold change /veh RCAN1 (11760418_a_at) / RFU FAM167A (11723789_a_at) / Fold change /veh FAM167A (11723789_a_at) / RFU FAM26E (11764081_at) / Fold change /veh FAM26E (11764081_at) / RFU ISYNA1 (11749810_s_at) / Fold change /veh ISYNA1 (11749810_s_at) / RFU ACY1 (11761880_at) / Fold change /veh ACY1 (11761880_at) / RFU 11764098_at / Fold change /veh 11764098_at / RFU SAMD14 (11745864_x_at) / Fold change /veh SAMD14 (11745864_x_at) / RFU NPB (11741838_a_at) / Fold change /veh NPB (11741838_a_at) / RFU TMPRSS6 (11731388_a_at) / Fold change /veh TMPRSS6 (11731388_a_at) / RFU KRTAP10-2 (11738614_at) / Fold change /veh KRTAP10-2 (11738614_at) / RFU ARHGAP8 /// PRR5-ARHGAP8 (11727945_x_at) / Fold change /veh ARHGAP8 /// PRR5-ARHGAP8 (11727945_x_at) / RFU KRTAP5-7 /// NADSYN1 (11734609_at) / Fold change /veh KRTAP5-7 /// NADSYN1 (11734609_at) / RFU RASL12 (11751679_a_at) / Fold change /veh RASL12 (11751679_a_at) / RFU CDKN2B (11736163_a_at) / Fold change /veh CDKN2B (11736163_a_at) / RFU PRF1 (11729649_at) / Fold change /veh PRF1 (11729649_at) / RFU, ZNF638 /// ZNF638-IT1 / Fold change vs veh, ZNF638 /// ZNF638-IT1 / RFU, PANK3 / Fold change vs veh, PANK3 / RFU, SH3YL1 / Fold change vs veh, SH3YL1 / RFU, ZEB2 / Fold change vs veh, ZEB2 / RFU, NRIP1 / Fold change vs veh, NRIP1 / RFU, PTTG1IP / Fold change vs veh, PTTG1IP / RFU, CAPN2 / Fold change vs veh, CAPN2 / RFU, MED14 / Fold change vs veh, MED14 / RFU, SNORA58 / Fold change vs veh, SNORA58 / RFU, C1orf63 / Fold change vs veh, C1orf63 / RFU, LRRFIP1 / Fold change vs veh, LRRFIP1 / RFU, NDUFAF7 / Fold change vs veh, NDUFAF7 / RFU, SLC12A2 / Fold change vs veh, SLC12A2 / RFU, IBTK / Fold change vs veh, IBTK / RFU, ESF1 / Fold change vs veh, ESF1 / Fold change vs veh, TMEM50B / RFU, TAOK1 / Fold change vs veh, TAOK1 / RFU, ACBD3 / Fold change vs veh, ACBD3 / RFU, TMA16 / Fold change vs veh, TMA16 / RFU, RWDD3 / Fold change vs veh, RWDD3 / RFU, BCAT1 / Fold change vs veh, BCAT1 / RFU, EDEM3 / Fold change vs veh, EDEM3 / RFU, TMEM33 / Fold change vs veh, TMEM33 / RFU, WDR75 / Fold change vs veh, WDR75 / RFU, AHCTF1 / Fold change vs veh, AHCTF1 / RFU, TFRC / Fold change vs veh, TFRC / RFU, ZDHHC17 / Fold change vs veh, ZDHHC17 / RFU, NOM1 / Fold change vs veh, NOM1 / RFU, ARL8B / Fold change vs veh, ARL8B / RFU, ZBTB11 / Fold change vs veh, ZBTB11 / RFU, TAMM41 / Fold change vs veh, TAMM41 / RFU, KIAA1704 /// LOC100996395 / Fold change vs veh, KIAA1704 /// LOC100996395 / RFU, ING1 / Fold change vs veh, ING1 / RFU, TRMT61B / Fold change vs veh, TRMT61B / RFU, FUBP3 / Fold change vs veh, FUBP3 / RFU, TP53 / Fold change vs veh, TP53 / RFU, TNKS2 / Fold change vs veh, TNKS2 / RFU, ZFP14 / Fold change vs veh, ZFP14 / RFU, ACTR2 / Fold change vs veh, ACTR2 / RFU, PPP3R1 / Fold change vs veh, PPP3R1 / RFU, PIK3R1 / Fold change vs veh, PIK3R1 / RFU, HNRNPA1 / Fold change vs veh, HNRNPA1 / RFU, RNF170 / Fold change vs veh, RNF170 / RFU, ZNF28 / Fold change vs veh, ZNF28 / RFU, RNGTT / Fold change vs veh, RNGTT / RFU, OGT / Fold change vs veh, OGT / RFU, BRD1 / Fold change vs veh, BRD1 / RFU, MARS / Fold change vs veh, MARS / RFU, ZNF655 / Fold change vs veh, ZNF655 / RFU, FAHD1 / Fold change vs veh, FAHD1 / RFU, BDP1 / Fold change vs veh, BDP1 / RFU, LRRCC1 / Fold change vs veh, LRRCC1 / RFU, ARID1A / Fold change vs veh, ARID1A / RFU, ZNF146 / Fold change vs veh, ZNF146 / RFU, ZNF330 / Fold change vs veh, ZNF330 / RFU, GPN3 / Fold change vs veh, GPN3 / RFU, C9orf123 / Fold change vs veh, C9orf123 / RFU, N4BP2L2 / Fold change vs veh, N4BP2L2 / RFU, ARFIP1 / Fold change vs veh, ARFIP1 / RFU, FAM179B / Fold change vs veh, FAM179B / RFU, BCL10 / Fold change vs veh, BCL10 / RFU, UHRF1BP1L / Fold change vs veh, UHRF1BP1L / RFU, BET1 / Fold change vs veh, BET1 / RFU, CNOT2 / Fold change vs veh, CNOT2 / RFU, ZNF268 / Fold change vs veh, ZNF268 / Fold change vs veh, ZNF507 / RFU, DGCR2 / Fold change vs veh, DGCR2 / RFU, WDSUB1 / Fold change vs veh, WDSUB1 / Fold change vs veh, HSP90B1 /// MIR3652 / RFU, ADSS / Fold change vs veh, ADSS / RFU, GK / Fold change vs veh, GK / RFU, ZNF148 / Fold change vs veh, ZNF148 / RFU, TAF9 / Fold change vs veh, TAF9 / RFU, SLC1A5 / Fold change vs veh, SLC1A5 / RFU, SLMO2 / Fold change vs veh, SLMO2 / RFU, ABCC4 / Fold change vs veh, ABCC4 / RFU, LOC101060439 /// RAP1B / Fold change vs veh, LOC101060439 /// RAP1B / RFU, RFX7 / Fold change vs veh, RFX7 / RFU, GTPBP10 / Fold change vs veh, GTPBP10 / RFU, CNEP1R1 / Fold change vs veh, CNEP1R1 / RFU, BIVM-ERCC5 /// ERCC5 / Fold change vs veh, BIVM-ERCC5 /// ERCC5 / RFU, ILF3 / Fold change vs veh, ILF3 / RFU 11762660_at / Fold change /veh 11762660_at / RFU VCAN (11757783_s_at) / Fold change /veh VCAN (11757783_s_at) / RFU DDX43 (11728927_at) / Fold change /veh DDX43 (11728927_at) / RFU KRT8 (11758188_x_at) / Fold change /veh KRT8 (11758188_x_at) / RFU NKD1 (11759106_at) / Fold change /veh NKD1 (11759106_at) / RFU SRD5A1 (11742802_a_at) / Fold change /veh SRD5A1 (11742802_a_at) / RFU TPSAB1 /// TPSB2 (11721975_s_at) / Fold change /veh TPSAB1 /// TPSB2 (11721975_s_at) / RFU GSTM3 (11746129_a_at) / Fold change /veh GSTM3 (11746129_a_at) / RFU IL23R (11737362_x_at) / Fold change /veh IL23R (11737362_x_at) / RFU TMEM51 (11727254_a_at) / Fold change /veh TMEM51 (11727254_a_at) / RFU PIWIL2 (11732686_x_at) / Fold change /veh PIWIL2 (11732686_x_at) / RFU ORM1 (11744905_x_at) / Fold change /veh ORM1 (11744905_x_at) / RFU CCDC152 (11743942_at) / Fold change /veh CCDC152 (11743942_at) / RFU ECM1 (11717891_a_at) / Fold change /veh ECM1 (11717891_a_at) / RFU IL23R (11748794_a_at) / Fold change /veh IL23R (11748794_a_at) / RFU TNFAIP8L3 (11732012_x_at) / Fold change /veh TNFAIP8L3 (11732012_x_at) / RFU MBOAT4 (11741988_at) / Fold change /veh MBOAT4 (11741988_at) / RFU 11764193_at / Fold change /veh 11764193_at / RFU TMEM53 (11763286_at) / Fold change /veh TMEM53 (11763286_at) / RFU MAGEB2 (11727129_at) / Fold change /veh MAGEB2 (11727129_at) / RFU TMEM200A (11744735_a_at) / Fold change /veh TMEM200A (11744735_a_at) / RFU CCDC152 (11751479_a_at) / Fold change /veh CCDC152 (11751479_a_at) / RFU FAM211A (11726209_a_at) / Fold change /veh FAM211A (11726209_a_at) / RFU RGS16 (11746705_a_at) / Fold change /veh RGS16 (11746705_a_at) / RFU VCAN (11755009_s_at) / Fold change /veh VCAN (11755009_s_at) / RFU RHOB (11743442_s_at) / Fold change /veh RHOB (11743442_s_at) / RFU RGS16 (11720943_a_at) / Fold change /veh RGS16 (11720943_a_at) / RFU RGS16 (11720944_at) / Fold change /veh RGS16 (11720944_at) / RFU, VPS4B / Fold change vs veh, VPS4B / RFU, CREB1 / Fold change vs veh, CREB1 / RFU, DNAJC13 / Fold change vs veh, DNAJC13 / RFU, GNAQ / Fold change vs veh, GNAQ / RFU, CDK5R1 / Fold change vs veh, CDK5R1 / RFU, ZRANB3 / Fold change vs veh, ZRANB3 / RFU, CUL4A / Fold change vs veh, CUL4A / RFU, CCNY / Fold change vs veh, CCNY / RFU, UFL1 / Fold change vs veh, UFL1 / RFU, COG3 / Fold change vs veh, COG3 / RFU, DIAPH2 / Fold change vs veh, DIAPH2 / RFU, SKA2 / Fold change vs veh, SKA2 / RFU, AFF3 / Fold change vs veh, AFF3 / RFU, LMF1 / Fold change vs veh, LMF1 / RFU, IPO11 / Fold change vs veh, IPO11 / RFU, DFFB / Fold change vs veh, DFFB / RFU, FOXP1 / Fold change vs veh, FOXP1 / RFU, CARD8 / Fold change vs veh, CARD8 / RFU, STRN3 / Fold change vs veh, STRN3 / RFU, ADK / Fold change vs veh, ADK / RFU, RASSF2 / Fold change vs veh, RASSF2 / RFU, WIPF1 / Fold change vs veh, WIPF1 / RFU, LARP1B / Fold change vs veh, LARP1B / RFU, RASA1 / Fold change vs veh, RASA1 / RFU, RB1 / Fold change vs veh, RB1 / RFU, PPFIA1 / Fold change vs veh, PPFIA1 / RFU, MAT2A / Fold change vs veh, MAT2A / RFU, CCT5 / Fold change vs veh, CCT5 / RFU, WDR92 / Fold change vs veh, WDR92 / RFU, CUX1 / Fold change vs veh, CUX1 / RFU, TTC7A / Fold change vs veh, TTC7A / RFU, TMEM135 / Fold change vs veh, TMEM135 / RFU, DEPTOR / Fold change vs veh, DEPTOR / RFU, CPM / Fold change vs veh, CPM / RFU, DNAJB6 / Fold change vs veh, DNAJB6 / RFU, CACNA2D3 / Fold change vs veh, CACNA2D3 / RFU, DTX4 / Fold change vs veh, DTX4 / RFU, TFCP2 / Fold change vs veh, TFCP2 / RFU, GMCL1 /// GMCL1P1 / Fold change vs veh, GMCL1 /// GMCL1P1 / RFU, AEBP2 / Fold change vs veh, AEBP2 / RFU, SNHG1 /// SNORD22 /// SNORD25 /// SNORD26 /// SNORD27 /// SNORD28 /// SNORD29 /// SNORD31 / Fold change vs veh, SNHG1 /// SNORD22 /// SNORD25 /// SNORD26 /// SNORD27 /// SNORD28 /// SNORD29 /// SNORD31 / Fold change (Aza/veh), C12orf56 (ProbeSet 11735607_a_at) / Fold change (ACY-1035/veh), C12orf56 (ProbeSet 11735607_a_at) / Fold change (Aza/veh), FGFR1OP (ProbeSet 11751329_s_at) / Fold change (ACY-1035/veh), FGFR1OP (ProbeSet 11751329_s_at) / Fold change (Aza/veh), VPS36 (ProbeSet 11739960_a_at) / Fold change (ACY-1035/veh), VPS36 (ProbeSet 11739960_a_at) / RFU SYPL1 (11715823_x_at) / Fold change /veh SYPL1 (11715823_x_at) / RFU IGFBP7 (11715501_s_at) / Fold change /veh IGFBP7 (11715501_s_at) / RFU REEP3 (11722064_at) / Fold change /veh REEP3 (11722064_at) / RFU IGLL1 (11728026_x_at) / Fold change /veh IGLL1 (11728026_x_at): dose or concentration left out as unconfirmed
Conditions: MV-4-11 cells, 48 hours

## Nc1ccc(-c2cccs2)cc1NC(=O)c1ccc2c(c1)cc(C1CC1)n2CCN1CCOCC1 [ACY-1035]
  RFU CASKIN2 (11723855_a_at): 29.44 RFU
